From paper PMC12445503 (Channels, 2025)

How the values were obtained:
Type in all cases: cell-based
Cav1.3 = biological target: T1, Cav1.3 (Homo sapiens, UniProt Q01668); assay: whole-cell patch-clamp concentration-response, […] Ca2+, HP -89 mV, […] Hz
T1 construct: gene CACNA1D; human Cav1.3S (C-terminal short splice variant, exon 8b) α1 stably expressed in tsA-201 cells; with auxiliary β3 (rat) and α2δ1 (rabbit) subunits

Cav1.2 = biological target: T2, Cav1.2 (Homo sapiens, UniProt Q13936); assay: as above
T2 construct: gene CACNA1C; human Cav1.2 α1 stably expressed in tsA-201 cells; with auxiliary β3 (rat) and α2δ1 (rabbit) subunits

Cav2.3 = biological target: T3, Cav2.3 (Homo sapiens, UniProt Q15878); assay: whole-cell patch-clamp, […], […] Ca2+, HP -89 mV, […] Hz; conditions: read-out: % remaining ICa / 10 μM
T3 construct: gene CACNA1E; Cav2.3e α1 transiently expressed in tsA-201 cells; with auxiliary β3 and α2δ1 subunits

T1 sequence (Q01668 whole entry, canonical isoform): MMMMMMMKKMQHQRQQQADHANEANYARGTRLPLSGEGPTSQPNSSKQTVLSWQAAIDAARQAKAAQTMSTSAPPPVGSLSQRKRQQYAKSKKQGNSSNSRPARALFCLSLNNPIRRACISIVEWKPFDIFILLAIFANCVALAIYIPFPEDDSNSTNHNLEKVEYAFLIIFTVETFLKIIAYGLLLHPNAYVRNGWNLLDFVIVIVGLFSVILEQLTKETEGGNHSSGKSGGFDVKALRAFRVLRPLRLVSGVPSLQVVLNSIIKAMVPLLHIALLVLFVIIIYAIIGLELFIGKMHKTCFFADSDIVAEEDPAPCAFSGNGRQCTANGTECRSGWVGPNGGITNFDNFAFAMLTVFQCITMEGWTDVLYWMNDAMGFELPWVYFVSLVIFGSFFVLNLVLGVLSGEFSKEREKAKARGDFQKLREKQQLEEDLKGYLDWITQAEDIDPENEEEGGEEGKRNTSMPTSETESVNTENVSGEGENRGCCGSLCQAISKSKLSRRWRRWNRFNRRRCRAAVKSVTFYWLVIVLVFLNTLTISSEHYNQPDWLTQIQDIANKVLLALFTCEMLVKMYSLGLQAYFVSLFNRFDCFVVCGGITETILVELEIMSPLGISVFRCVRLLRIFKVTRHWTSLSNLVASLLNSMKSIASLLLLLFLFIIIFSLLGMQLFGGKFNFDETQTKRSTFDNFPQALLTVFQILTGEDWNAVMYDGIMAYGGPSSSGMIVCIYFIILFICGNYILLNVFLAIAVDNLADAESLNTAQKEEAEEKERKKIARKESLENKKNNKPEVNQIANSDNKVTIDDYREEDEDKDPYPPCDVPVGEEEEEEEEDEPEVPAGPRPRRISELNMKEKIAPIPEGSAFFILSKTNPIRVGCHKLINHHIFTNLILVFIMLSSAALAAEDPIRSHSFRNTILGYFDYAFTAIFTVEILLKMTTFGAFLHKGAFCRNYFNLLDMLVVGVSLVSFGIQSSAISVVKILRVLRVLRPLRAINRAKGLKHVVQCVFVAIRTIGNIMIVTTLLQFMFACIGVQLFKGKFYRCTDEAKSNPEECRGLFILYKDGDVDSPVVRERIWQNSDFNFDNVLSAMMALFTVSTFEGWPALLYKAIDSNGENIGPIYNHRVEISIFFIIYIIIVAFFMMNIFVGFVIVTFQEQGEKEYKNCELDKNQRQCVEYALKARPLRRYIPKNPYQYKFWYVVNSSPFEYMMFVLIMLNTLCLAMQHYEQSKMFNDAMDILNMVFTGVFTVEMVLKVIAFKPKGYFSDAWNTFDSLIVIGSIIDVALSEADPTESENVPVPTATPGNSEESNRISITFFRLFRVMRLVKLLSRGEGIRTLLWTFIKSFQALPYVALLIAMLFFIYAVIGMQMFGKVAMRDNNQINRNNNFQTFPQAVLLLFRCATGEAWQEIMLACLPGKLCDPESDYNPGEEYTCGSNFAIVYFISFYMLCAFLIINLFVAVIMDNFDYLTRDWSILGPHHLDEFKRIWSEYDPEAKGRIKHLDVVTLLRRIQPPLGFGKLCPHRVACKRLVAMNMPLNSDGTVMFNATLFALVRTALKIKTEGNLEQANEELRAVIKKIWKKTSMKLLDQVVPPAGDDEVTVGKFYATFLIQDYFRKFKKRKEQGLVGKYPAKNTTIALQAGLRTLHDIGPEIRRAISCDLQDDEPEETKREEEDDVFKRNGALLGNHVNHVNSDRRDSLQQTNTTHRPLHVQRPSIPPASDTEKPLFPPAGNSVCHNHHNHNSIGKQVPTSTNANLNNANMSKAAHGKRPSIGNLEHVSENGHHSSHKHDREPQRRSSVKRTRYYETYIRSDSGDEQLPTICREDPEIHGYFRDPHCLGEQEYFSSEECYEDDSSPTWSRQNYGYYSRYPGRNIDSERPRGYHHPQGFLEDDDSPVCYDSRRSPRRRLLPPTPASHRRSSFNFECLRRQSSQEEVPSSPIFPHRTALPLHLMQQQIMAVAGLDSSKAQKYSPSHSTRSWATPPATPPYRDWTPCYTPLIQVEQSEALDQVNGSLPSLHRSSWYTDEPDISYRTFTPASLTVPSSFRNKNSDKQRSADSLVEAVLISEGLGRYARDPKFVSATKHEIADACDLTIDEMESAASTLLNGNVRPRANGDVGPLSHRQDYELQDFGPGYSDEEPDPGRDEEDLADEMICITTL
T1 sequence (P54287 whole entry partner, canonical isoform): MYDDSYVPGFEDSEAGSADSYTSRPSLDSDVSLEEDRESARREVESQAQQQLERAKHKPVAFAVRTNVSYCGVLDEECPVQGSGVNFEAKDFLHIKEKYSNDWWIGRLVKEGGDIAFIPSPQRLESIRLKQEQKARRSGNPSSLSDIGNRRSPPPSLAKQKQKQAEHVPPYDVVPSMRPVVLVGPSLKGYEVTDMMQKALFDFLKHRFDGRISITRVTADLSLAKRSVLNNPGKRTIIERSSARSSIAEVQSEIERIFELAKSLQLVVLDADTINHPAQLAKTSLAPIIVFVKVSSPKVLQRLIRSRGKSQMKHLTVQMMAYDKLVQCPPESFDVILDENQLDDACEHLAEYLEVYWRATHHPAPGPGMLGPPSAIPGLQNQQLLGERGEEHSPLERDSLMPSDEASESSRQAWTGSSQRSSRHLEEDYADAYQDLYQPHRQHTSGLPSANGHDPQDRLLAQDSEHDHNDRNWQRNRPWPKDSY
T1 sequence (P13806 27-960 partner): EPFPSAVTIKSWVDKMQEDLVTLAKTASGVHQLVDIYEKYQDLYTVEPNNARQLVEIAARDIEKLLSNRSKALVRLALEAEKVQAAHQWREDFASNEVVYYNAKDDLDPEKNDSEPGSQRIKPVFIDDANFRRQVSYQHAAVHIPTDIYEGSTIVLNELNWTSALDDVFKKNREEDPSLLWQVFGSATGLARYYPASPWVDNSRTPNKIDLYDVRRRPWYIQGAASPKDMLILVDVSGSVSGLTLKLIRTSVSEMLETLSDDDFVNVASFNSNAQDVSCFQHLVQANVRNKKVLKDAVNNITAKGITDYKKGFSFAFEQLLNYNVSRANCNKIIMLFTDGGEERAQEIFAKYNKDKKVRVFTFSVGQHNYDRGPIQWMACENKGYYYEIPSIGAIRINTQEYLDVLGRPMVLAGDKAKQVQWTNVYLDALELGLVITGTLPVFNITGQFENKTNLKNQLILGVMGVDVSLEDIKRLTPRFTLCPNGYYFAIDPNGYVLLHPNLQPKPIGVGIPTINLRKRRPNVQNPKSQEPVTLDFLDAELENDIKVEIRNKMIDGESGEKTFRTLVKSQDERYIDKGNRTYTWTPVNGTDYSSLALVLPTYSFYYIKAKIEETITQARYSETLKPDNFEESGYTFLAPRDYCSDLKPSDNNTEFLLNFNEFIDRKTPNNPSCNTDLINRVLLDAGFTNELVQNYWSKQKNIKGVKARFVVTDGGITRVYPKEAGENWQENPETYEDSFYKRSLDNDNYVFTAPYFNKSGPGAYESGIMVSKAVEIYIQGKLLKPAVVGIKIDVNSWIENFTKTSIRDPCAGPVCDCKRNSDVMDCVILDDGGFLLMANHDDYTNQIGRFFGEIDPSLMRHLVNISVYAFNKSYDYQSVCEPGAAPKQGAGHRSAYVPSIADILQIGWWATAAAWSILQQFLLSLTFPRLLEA
T1 sequence (P13806 961-1106 partner): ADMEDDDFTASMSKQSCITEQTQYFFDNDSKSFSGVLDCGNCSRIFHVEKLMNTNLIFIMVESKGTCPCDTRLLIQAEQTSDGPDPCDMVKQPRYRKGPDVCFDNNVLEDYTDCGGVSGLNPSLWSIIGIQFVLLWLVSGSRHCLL

Row | Structure (SMILES) | IC50 (Cav1.3) [µM] | IC50 (Cav1.2) [µM] | remaining activity at 10 µM (Cav2.3) [%]
1 | COC(=O)C1=C(C)NC(C)=C(C(=O)OC(C)C)C1c1cccc2nonc12 (stereo not shown) [isradipine] | 0.134 |  | 
2 | C=C[C@](C)(O)CC[C@@H]1[C@@]2(C)CCCC(C)(C)[C@@H]2CC[C@@]1(C)O [sclareol] | 16.3 | 12.5 | 36.7 ± 11.2
